Like-named read-outs stand apart in the source and are kept apart here.
Experiments:
[1] = target: T1, Human protein Z (PZ) (Homo sapiens, UniProt P22891); experiment: SPR binding of porphyrins to immobilized PZ (single-cycle kinetics); details: for Kd: heterogenous ligand model
T1 construct: purchased CellSystems GmbH HCPZ-0220
Experimental: SPR experiments were conducted on a Biacore 8K instrument (Cytiva) to investigate the interaction of PZ with heme, as established before.^[ [19] ^, [35] ^, [37] ^, [43] ^] In brief, PZ (10 µg mL^−1) was dissolved in 10 mM sodium acetate buffer (pH 3.5) and immobilized onto a CM5 sensor chip via standard amine coupling, resulting in a final immobilization level of 767 RU. Heme (stock solution in 30 mM NaOH) was further diluted in running buffer (10 mM HEPES, 150 mM NaCl, and 0.05% Tween 20, pH 7.4). The same was performed with zinc (II) protoporphyrin IX and protoporphyrin IX (Frontier Scientific). Binding kinetics were assessed by injecting seven increasing concentrations of heme (187.5–12,000 nM) in a single‐cycle kinetics format at 25 °C and a flow rate of 30 µL min^−1. Data analysis was performed by global fitting using Biacore Insight Evaluation Software, version 3.0.12.15655 (Cytiva).

[2] = target: coagulation factor VIII (FVIII); design: method as in PMID 3105105, PMID 22471307, PMID 38631156; details: read-out: K D (heme binding to FVIII); cited from earlier work
[3] = target: T2, PZ (Homo sapiens, UniProt P22891); experiment: aPTT-based one-stage clotting assay: anticoagulant function of PZ against FXa in the presence of heme; assay type: biochemical; details: PZ 32 nM, FXa 0.1 nM; for impact alone on the procoagulant function of FXa or on clotting of pure plasma (aPTT): controls, heme 0.06 – 20 µM
T2 construct: purchased CellSystems GmbH HCPZ-0220 (PZ); HCXA-0060 (FXa)
Experimental: To estimate an effect on molecular level, the structure of the PZ–ZPI complex (PDB: 3H5C^[ [42] ^]) was first inspected with heme attached to PZ. The anticoagulant function of PZ was then analyzed in the presence of heme by a one‐stage clotting assay, which was inspired by previous work from us and others.^[ [19] ^, [27] ^] The aPTT‐based assay was performed with the ball coagulometer KC 4 A (Amelung, Lemgo, Germany). PZ (320 nM) was preincubated with different concentrations of heme (0–100 µM) for 30 min in 1x PBS, pH 7.4. Afterward, 50 µL of the PZ–heme mixture was incubated with 50 µL of Actin FSL, 50 µl CaCl2 (30 mM), and 50 µL FXa (0.5 nM) at 37 °C for 3 min. Finally, 50 µL citrated pooled plasma was added and the clotting time was automatically recorded. The following mixtures served as controls: 1) 50 µL PBS‐heme + 50 µL Actin FSL + 50 µL CaCl2 + 50 µL FXa + 50 µL citrated plasma, 2) 50 µL PBS‐heme + 50 µL Actin FSL + 50 µL CaCl2 + 50 µL PBS + 50 µL citrated plasma, 3) 50 µL PZ–heme + 50 µL Actin FSL + 50 µL CaCl2 + 50 µL PBS + 50 µL citrated plasma, 4) 50 µL PZ‐PBS + 50 µL Actin FSL + 50 µL CaCl2 + 50 µL FXa + 50 µL citrated plasma, 5) 50 µL PZ‐PBS + 50 µL Actin FSL + 50 µL CaCl2 + 50 µL PBS + 50 µL citrated plasma, 6) 50 µL PBS + 50 µL Actin FSL + 50 µL CaCl2 + 50 µL FXa + 50 µL citrated plasma, and 7) 50 µL PBS + 50 µL Actin FSL + 50 µL CaCl2 + 50 µL PBS + 50 µL citrated plasma. Final concentrations in the approach were 6 mM CaCl2, 0–20 µM heme, 32 nM and PZ, 0.1 nM FXa. Data were normalized against the clotting time of citrated plasma only (control (7)) and evaluated as the mean of triplicates. The IC50 was determined by fitting the curves with nonlinear regression (GraphPad Prism, version 10.5.0).

[4] = target: activated protein C (APC); design: method as in PMID 32705892; details: read-out: K D (heme binding to APC); cited from earlier work

T2 sequence (P22891 41-400): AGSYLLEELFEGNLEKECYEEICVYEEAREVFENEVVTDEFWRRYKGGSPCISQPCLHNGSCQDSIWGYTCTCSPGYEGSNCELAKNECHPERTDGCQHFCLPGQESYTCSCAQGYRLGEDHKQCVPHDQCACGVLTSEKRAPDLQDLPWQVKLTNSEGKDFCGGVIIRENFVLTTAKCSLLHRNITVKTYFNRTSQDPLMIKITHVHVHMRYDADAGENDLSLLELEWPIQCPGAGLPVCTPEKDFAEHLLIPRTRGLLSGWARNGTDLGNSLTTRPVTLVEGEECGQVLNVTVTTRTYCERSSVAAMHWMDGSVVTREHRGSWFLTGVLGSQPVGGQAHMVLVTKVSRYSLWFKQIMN
T1 sequence (P22891 41-400): as above

Substance: Hemin [heme]
- k a1 (association rate) ([1]; first binding event): 47300 M⁻¹ s⁻¹
- k d1 (dissociation rate) ([1]; first binding event): 0.00583 s⁻¹
- Kd ([1]; heme 187.5 nM–12 µM, 25 °C, read-out: K D1 (heme-binding affinity for PZ)): 0.123 µM
- Kd ([1]; read-out: K D2 (second binding event, likely unspecific)): 8.57 µM
- k a2 (association rate) ([1]; second binding event): 845 M⁻¹ s⁻¹
- k d2 (dissociation rate) ([1]; second binding event): 0.00724 s⁻¹
- Kd [2]: 2 to 13 nM
- heme level at which the procoagulant function of FXa was restored [3]: ≥ 2 µM
- IC50 ([3]; heme 0.06–20 µM, citrated pooled plasma, read-out: IC50 (inhibition of the anticoagulant function of PZ against FXa)): 830 ± 210 nM
- impact alone on the procoagulant function of FXa or on clotting of pure plasma (aPTT) [3]: did not exert any significant impact
- impact alone on the procoagulant function of FXa or on clotting of pure plasma (aPTT) ([3]; listed as Heme): did neither affect
- Kd [4]: ~400 nM
